Each structure is given as a SMILES string.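 Each compound was tested at five concentrations against cells in 96-well plates for 48 hours. At the TGI there is no net growth.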 A value given as a limit tells only on which side of the number the result lay.

In PubChem BioAssay (NCI) one finds TGI data, which are given here for 17 compounds.

Among the test systems are COLO 205 colon; HOP-92 NSCLC; SW-620 colon; RXF 393 renal; UO-31 renal; SF-295 CNS; OVCAR-3 ovarian; MDA-N.
What all share (experiment): NCI anticancer screen, dose series, 48 h

As to `COC(=O)C1(Cc2ccc3c(c2)CCC3)Cc2ccc3c(c2C1=O)CCC3` (stereo not drawn), the TGI in the experiment with COLO 205 colon was 9.16 µM; with HOP-92 NSCLC, 54 µM; in the experiment on SW-620 colon it was more than 71.1 µM; with RXF 393 renal it was 22.7 µM; in the experiment on UO-31 renal, more than 100 µM; in the experiment on SF-295 CNS, more than 72.6 µM. The TGI with OVCAR-3 ovarian worked out at 52.8 µM; in the experiment with MDA-N, 5.78 µM.

Take `CC(O)C(CO)NC(=O)C1CSSCC(NC(=O)C(N)Cc2ccccc2)C(=O)NC(Cc2ccccc2)C(=O)NC(Cc2c[nH]c3ccccc23)C(=O)NC(CCCCN)C(=O)NC(C(C)O)C(=O)N1` (stereo not drawn): the TGI in the experiment on COLO 205 colon, in the experiment with HOP-92 NSCLC, in the experiment on SW-620 colon, with RXF 393 renal, in the experiment on UO-31 renal and with SF-295 CNS was more than 100 µM throughout. Also, the TGI in the experiment with OVCAR-3 ovarian and with MDA-N was more than 100 µM throughout.

`O=S1(=O)OCCOS(=O)(=O)C1(F)Cc1ccccc1`: the TGI in the experiment on COLO 205 colon, with HOP-92 NSCLC, in the experiment with SW-620 colon, in the experiment with RXF 393 renal, with UO-31 renal and in the experiment with SF-295 CNS was more than 100 µM throughout. In addition, the TGI with OVCAR-3 ovarian and with MDA-N was more than 100 µM each time.

Consider `COc1ccc2c(c1)/C(=C\c1c(Cl)nc3n1CCS3)C(=O)N2`, for which the TGI is 10.9 µM in the experiment on COLO 205 colon; more than 100 µM with HOP-92 NSCLC; more than 100 µM with SW-620 colon; 9.91 µM in the experiment on RXF 393 renal; more than 100 µM in the experiment with UO-31 renal; 44.5 µM in the experiment with SF-295 CNS. In addition, the TGI came out at 17.8 µM in the experiment on OVCAR-3 ovarian and 6.54 µM in the experiment with MDA-N.

Consider `COC(=O)c1ccc(OCCn2nnc(C(=O)NN)c2C(=O)NN)cc1`, for which the TGI in the experiment with COLO 205 colon, in the experiment with HOP-92 NSCLC, in the experiment with UO-31 renal, in the experiment on SF-295 CNS, in the experiment on OVCAR-3 ovarian and in the experiment with MDA-N was more than 100 µM throughout.

On to `COc1cc(/C=C2\C(=O)N(c3cccc(NC(C)=O)c3)C(c3ccccc3)S2(=O)=O)cc(OC)c1OC` (stereo not drawn), for which the TGI in the experiment with COLO 205 colon, in the experiment with HOP-92 NSCLC, with SW-620 colon, in the experiment on RXF 393 renal, in the experiment with UO-31 renal and in the experiment with SF-295 CNS was more than 100 µM throughout. Also, the TGI in the experiment on OVCAR-3 ovarian and in the experiment with MDA-N was more than 100 µM each time.

With `O=C(Cn1c2ccc(Br)cc2c2nc3ccccc3nc21)NCc1ccccc1`, the TGI with COLO 205 colon was more than 100 µM; with HOP-92 NSCLC, 13.1 µM; in the experiment with SW-620 colon, more than 100 µM; with RXF 393 renal it was 26.9 µM; with UO-31 renal it was more than 100 µM; in the experiment on SF-295 CNS, more than 100 µM. Moreover, the TGI in the experiment on OVCAR-3 ovarian and in the experiment on MDA-N was more than 100 µM in each case.

With `O=C(N/N=C\c1ccc(Cl)cc1)Nc1ccc2ccccc2c1`, the TGI in the experiment on COLO 205 colon was more than 100 µM; with HOP-92 NSCLC, 77.7 µM; in the experiment on SW-620 colon, more than 100 µM; with RXF 393 renal it was more than 100 µM; in the experiment on UO-31 renal, more than 100 µM; in the experiment on OVCAR-3 ovarian, more than 100 µM. This compound also came in with a TGI with MDA-N of more than 100 µM.

In the case of `O=C1/C(=C/c2cccc([N+](=O)[O-])c2)N=C(c2ccccc2)N1c1nc2ccc(Sc3ccccc3)cc2[nH]1`, the TGI is 96.8 µM in the experiment with COLO 205 colon; more than 100 µM in the experiment with HOP-92 NSCLC; more than 100 µM in the experiment on SW-620 colon; more than 100 µM with RXF 393 renal; more than 100 µM with UO-31 renal; more than 100 µM with SF-295 CNS. The compound also displayed a TGI in the experiment on MDA-N of 33.3 µM.

Consider `N=c1oc2ccc3ccccc3c2cc1-c1nc2ccccc2c(=O)[nH]1`, for which the TGI is more than 100 µM with COLO 205 colon; 41.9 µM in the experiment on HOP-92 NSCLC; more than 100 µM in the experiment with SW-620 colon; 56.7 µM in the experiment with RXF 393 renal; 32.8 µM in the experiment on UO-31 renal; more than 100 µM in the experiment on SF-295 CNS. Moreover, the TGI with MDA-N was more than 100 µM.

Turning to `O=C1CCCC2=C1CC1=C(CCCC1=O)N2c1ccc(Cl)cc1`, the TGI in the experiment on COLO 205 colon, in the experiment with SW-620 colon, with RXF 393 renal, in the experiment with UO-31 renal, with SF-295 CNS and in the experiment on OVCAR-3 ovarian was more than 100 µM each time. Also, the TGI with MDA-N is more than 100 µM.

`CN(C)N1C(=O)C(=O)N(c2cccc3ccccc23)C1=O`: the TGI in the experiment with COLO 205 colon, in the experiment on SW-620 colon, in the experiment with RXF 393 renal, in the experiment on UO-31 renal, in the experiment with SF-295 CNS and with OVCAR-3 ovarian was more than 10 µM throughout. In the experiment on MDA-N, the TGI was more than 10 µM.

As for `Cc1cccc2c(=O)c3cccc([C@H](C)C(=O)O)c3oc12`, the TGI in the experiment on COLO 205 colon, in the experiment on HOP-92 NSCLC, with SW-620 colon, in the experiment with UO-31 renal, with SF-295 CNS and in the experiment with OVCAR-3 ovarian was more than 100 µM each time. The TGI in the experiment on MDA-N was more than 100 µM.

On to `CCOP(=O)(OCC)C(c1ccc(F)cc1)N(C(=O)NC(F)(F)F)c1ccc(F)cc1` (stereo not drawn), for which the TGI with COLO 205 colon, in the experiment with SW-620 colon, with RXF 393 renal, in the experiment with UO-31 renal, in the experiment with SF-295 CNS and in the experiment on OVCAR-3 ovarian was more than 100 µM in each case. Also, in the experiment with MDA-N, the TGI is more than 100 µM.

For the compound `CC(C#N)(NO)C(C)(C#N)NO` (stereo not drawn), the TGI in the experiment with COLO 205 colon, with SW-620 colon, with RXF 393 renal, in the experiment on UO-31 renal, in the experiment on OVCAR-3 ovarian and in the experiment with MDA-N was more than 100 µM in each case.

Turning to `Cc1cc(=O)[nH]c2cc(NC(=O)C(C)NC(=O)C(C)NC(=O)C(C)NC(=O)OC(C)(C)C)ccc12` (stereo not drawn), the TGI with COLO 205 colon, with HOP-92 NSCLC, in the experiment with SW-620 colon, with RXF 393 renal, with UO-31 renal and in the experiment on SF-295 CNS was more than 15 µM in each case. Also, the TGI in the experiment on MDA-N was more than 15 µM.

For the compound `N=C1OC(CN2CCN(c3ccccc3)CC2)CN1C(=O)Nc1ccccc1` (stereo not drawn), the TGI with COLO 205 colon, with HOP-92 NSCLC, in the experiment with SW-620 colon, in the experiment with RXF 393 renal, with UO-31 renal and with SF-295 CNS was more than 100 µM in each case. The compound further displayed a TGI in the experiment with MDA-N of more than 100 µM.
